Source: US10183950B2, “Thienopyrimidine inhibitors of atypical protein kinase C” (Cancer Research Technology Limited, priority 2011, dated 2019)

These compounds were tested against T1, full-length human PKCι (Homo sapiens, UniProt P41743) (assay: PKCι IC50 IMAP fluorescence polarisation assay, full-length enzyme). Settings: full length PKCi at 15 μM ATP; read-out: IC50 in IMAP assay against full length PKCi.
T1 construct: Recombinant, full-length human PKCι expressed in Sf21 insect cells is also commercially available; purchased; host or cells: Sf21 insect cells
T1 sequence (P41743 1-596): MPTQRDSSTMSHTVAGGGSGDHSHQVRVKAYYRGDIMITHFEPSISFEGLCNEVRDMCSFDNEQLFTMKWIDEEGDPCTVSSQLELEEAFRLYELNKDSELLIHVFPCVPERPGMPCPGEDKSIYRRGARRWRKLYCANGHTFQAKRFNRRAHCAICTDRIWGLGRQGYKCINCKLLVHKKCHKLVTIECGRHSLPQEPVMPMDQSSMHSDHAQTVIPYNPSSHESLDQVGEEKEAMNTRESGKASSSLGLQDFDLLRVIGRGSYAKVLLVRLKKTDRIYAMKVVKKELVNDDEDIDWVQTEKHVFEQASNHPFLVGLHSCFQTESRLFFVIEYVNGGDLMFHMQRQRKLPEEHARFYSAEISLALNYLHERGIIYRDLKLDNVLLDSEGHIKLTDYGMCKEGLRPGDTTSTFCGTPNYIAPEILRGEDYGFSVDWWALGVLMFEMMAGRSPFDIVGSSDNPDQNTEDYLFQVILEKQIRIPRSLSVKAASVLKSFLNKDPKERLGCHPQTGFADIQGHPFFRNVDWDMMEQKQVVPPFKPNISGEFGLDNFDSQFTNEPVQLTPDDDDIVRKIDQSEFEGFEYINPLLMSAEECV
Assay type: biochemical

Row | SMILES | IC50
1 | N[C@H](CNc1nc(-c2ccncc2)nc2c(/C=C/C3CC3)csc12)Cc1ccccc1 [compound 405, (S)-N*1*-[7-((E)-2-Cyclopropyl-vinyl)-2-pyridin-4-yl-thieno[3,2-d]pyrimidin-4-yl]-3-phenyl-propane-1,2-diamine] | < 100 nM
2 | Cc1ccc(-c2c(C(C)(C)C)sc3c(NC[C@@H](N)Cc4ccccc4)nc(-c4ccncc4)nc23)s1 [compound 447, (S)-N*1*-[6-tert-Butyl-7-(5-methyl-thiophen-2-yl)-2-pyridin-4-yl-thieno[3,2-d]pyrimidin-4-yl]-3-phenyl-propane-1,2-diamine] | 1000 to 10000 nM
3 | COC(C)(C)C#Cc1csc2c(NC[C@@H](N)Cc3ccccc3)nc(-c3ccncc3)nc12 [compound 520, (S)-N*1*-[7-(3-Methoxy-3-methyl-but-1-ynyl)-2-pyridin-4-yl-thieno[3,2-d]pyrimidin-4-yl]-3-phenyl-propane-1,2-diamine] | 100 to 1000 nM
4 | N[C@H](CNc1nc(-c2ccncc2)nc2c(C#Cc3ccccc3F)csc12)Cc1ccccc1 [compound 530, (S)-N*1*-[7-(2-Fluoro-phenylethynyl)-2-pyridin-4-yl-thieno[3,2-d]pyrimidin-4-yl]-3-phenyl-propane-1,2-diamine] | 100 to 1000 nM
5 | COc1ccc(C(C)C)cc1-c1c(C)sc2c(NC[C@@H](N)Cc3ccccc3)nc(-c3ccncc3)nc12 [compound 462, (S)-N*1*-[7-(5-Isopropyl-2-methoxy-phenyl)-6-methyl-2-pyridin-4-yl-thieno[3,2-d]pyrimidin-4-yl]-3-phenyl-propane-1,2-diamine] | 10000 to 40000 nM
6 | N[C@H](CNc1nc(-c2ccncc2F)nc2c(-c3cc(C(F)(F)F)[nH]n3)csc12)Cc1ccccc1 [compound 421, (S)-N*1*-[2-(3-Fluoro-pyridin-4-yl)-7-(5-trifluoromethyl-2H-pyrazol-3-yl)-thieno[3,2-d]pyrimidin-4-yl]-3-phenyl-propane-1,2-diamine] | 1000 to 10000 nM
7 | Cc1sc2c(NC[C@@H](N)Cc3ccccc3)nc(-c3ccncc3)nc2c1-c1ccccc1 [compound 449, (S)-N*1*-(6-Methyl-7-phenyl-2-pyridin-4-yl-thieno[3,2-d]pyrimidin-4-yl)-3-phenyl-propane-1,2-diamine] | 1000 to 10000 nM
8 | C[C@H](Nc1cc(-c2nc(N[C@@H]3CCNC3)c3sccc3n2)ccn1)c1ccccc1 [compound 587, {2-[2-((S)-1-Phenyl-ethylamino)-pyridin-4-yl]-thieno[3,2-d]pyrimidin-4-yl}-(R)-pyrrolidin-3-yl-amine] | 100 to 1000 nM
9 | Cn1cc(-c2csc3c(NC[C@@H](N)Cc4ccccc4)nc(-c4ccncc4)nc23)cn1 [compound 411, (S)-N*1*-[7-(1-Methyl-1H-pyrazol-4-yl)-2-pyridin-4-yl-thieno[3,2-d]pyrimidin-4-yl]-3-phenyl-propane-1,2-diamine] | 1000 to 10000 nM
10 | N[C@H](CNc1nc(-c2ccncc2F)nc2c(C#CC3(O)CCC3)csc12)Cc1ccccc1 [compound 507, 1-[4-((S)-2-Amino-3-phenyl-propylamino)-2-(3-fluoro-pyridin-4-yl)-thieno[3,2-d]pyrimidin-7-ylethynyl]-cyclobutanol] | 100 to 1000 nM
11 | COc1ccccc1C[C@H](N)CNc1nc(-c2ccncc2)nc2c(Br)c(C(C)(C)C)sc12 [compound 303, (S)—N*1*-(7-bromo-6-tert-butyl-2-pyridin-4-yl-thieno[3,2-d]pyrimidin-4-yl)-3-(2-methoxy-phenyl)-propane-1,2-diamine] | 10000 to 40000 nM
12 | CC(C)(O)C#Cc1c(C(C)(C)C)sc2c(NC[C@@H](N)Cc3ccccc3)nc(-c3ccncc3)nc12 [compound 505, 4-[4-((S)-2-Amino-3-phenyl-propylamino)-6-tert-butyl-2-pyridin-4-yl-thieno[3,2-d]pyrimidin-7-yl]-2-methyl-but-3-yn-2-ol] | 1000 to 10000 nM
13 | Cc1cc(Nc2csc3c(NC[C@@H](N)Cc4ccccc4)nc(-c4ccncc4)nc23)no1 [compound 490, N*4*-((S)-2-Amino-3-phenyl-propyl)-N*7*-(5-methyl-isoxazol-3-yl)-2-pyridin-4-yl-thieno[3,2-d]pyrimidine-4,7-diamine] | < 100 nM
14 | O=C(Nc1cc(-c2nc(N[C@@H]3CCNC3)c3sccc3n2)ccn1)c1cnccn1 [compound 615, Pyrazine-2-carboxylic acid {4-[4-((R)-pyrrolidin-3-ylamino)-thieno[3,2-d]pyrimidin-2-yl]-pyridin-2-yl}-amide] | 1000 to 10000 nM
15 | N[C@H](CNc1nc(-c2ccncc2Cl)nc2ccsc12)Cc1ccccc1 [compound 323, (S)-N*1*-[2-(3-Chloro-pyridin-4-yl)-thieno[3,2-d]pyrimidin-4-yl]-3-phenyl-propane-1,2-diamine] | 1000 to 10000 nM
16 | CN1CCN(c2ccc(C(=O)Nc3cc(-c4nc(N[C@@H]5CCNC5)c5sccc5n4)ccn3)cc2)CC1 [compound 620, 4-(4-Methyl-piperazin-1-yl)-N-{4-[4-((R)-pyrrolidin-3-ylamino)-thieno[3,2-d]pyrimidin-2-yl]-pyridin-2-yl}-benzamide] | 100 to 1000 nM
17 | CCC[C@@H](C)[C@H](O)C#Cc1csc2c(NC[C@@H](N)Cc3ccccc3)nc(-c3ccncc3)nc12 [compound 522, (S)-1-[4-((S)-2-Amino-3-phenyl-propylamino)-2-pyridin-4-yl-thieno[3,2-d]pyrimidin-7-yl]-4-methyl-hept-1-yn-3-ol] | 1000 to 10000 nM
18 | c1cnc(Nc2cc(-c3nc(N[C@@H]4CCNC4)c4sccc4n3)ccn2)cn1 [compound 577, {2-[2-(Pyrazin-2-ylamino)-pyridin-4-yl]-thieno[3,2-d]pyrimidin-4-yl}-(R)-pyrrolidin-3-yl-amine] | 100 to 1000 nM
19 | C/C=C\c1csc2c(NC[C@@H](N)Cc3ccccc3)nc(-c3ccncc3)nc12 [compound 407, (S)-3-Phenyl-N*1*-[7-((Z)-propenyl)-2-pyridin-4-yl-thieno[3,2-d]pyrimidin-4-yl]-propane-1,2-diamine] | < 100 nM
20 | CNc1ccc(-c2c(C(C)(C)C)sc3c(NC[C@@H](N)Cc4ccccc4)nc(-c4ccncc4)nc23)cc1 [compound 448, (S)-N*1*-[6-tert-Butyl-7-(4-methylamino-phenyl)-2-pyridin-4-yl-thieno[3,2-d]pyrimidin-4-yl]-3-phenyl-propane-1,2-diamine] | 1000 to 10000 nM
21 | CC(C)C#Cc1csc2c(NC[C@@H](N)Cc3ccccc3)nc(-c3ccncc3)nc12 [compound 518, (S)-N*1*-[7-(3-Methyl-but-1-ynyl)-2-pyridin-4-yl-thieno[3,2-d]pyrimidin-4-yl]-3-phenyl-propane-1,2-diamine] | 100 to 1000 nM
22 | CC(C)(O)C#Cc1csc2c(N[C@@H]3CCNC3)nc(-c3ccncc3)nc12 [compound 514, 2-Methyl-4-[2-pyridin-4-yl-4-((R)-pyrrolidin-3-ylamino)-thieno[3,2-d]pyrimidin-7-yl]-but-3-yn-2-ol] | 100 to 1000 nM

Same assay, conditions: full length PKCi at 15 μM ATP; read-out: IC50 in IMAP assay against full length PKCi (Activity)

Row | SMILES | IC50
23 | COc1cccc(C[C@H](N)CNc2nc(-c3ccncc3)nc3sc4c(c23)CCCC4)c1 [compound 54, (S)-3-(3-Methoxy-phenyl)-N*1*-(2-pyridin-4-yl-5,6,7,8-tetrahydro-benzo[4,5]thieno[2,3-d]pyrimidin-4-yl)-propane-1,2-diamine] | 1000 to 10000 nM
24 | N[C@@H](CNc1nc(-c2ccncc2)nc2sc3c(c12)CCCC3)Cc1csc2ccccc12 [compound 61, (R)-3-Benzo[b]thiophen-3-yl-N*1*-(2-pyridin-4-yl-5,6,7,8-tetrahydro-benzo[4,5]thieno[2,3-d]pyrimidin-4-yl)-propane-1,2-diamine] | 1000 to 10000 nM
25 | c1ccc(C[C@H]2CN(c3nc(-c4cn[nH]c4)nc4sc5c(c34)CCCC5)CCN2)cc1 [compound 196, 4-((S)-3-Benzyl-piperazin-1-yl)-2-(1H-pyrazol-4-yl)-5,6,7,8-tetrahydro-benzo[4,5]thieno[2,3-d]pyrimidine] | 1000 to 10000 nM
26 | N[C@H](CNc1nc(-c2ccncc2)nc2sc3c(c12)CCCC3)Cc1ccncc1 [compound 56, (S)-3-Pyridin-4-yl-N*1*-(2-pyridin-4-yl-5,6,7,8-tetrahydro-benzo[4,5]thieno[2,3-d]pyrimidin-4-yl)-propane-1,2-diamine] | 1000 to 10000 nM
27 | CCN1CCc2c(sc3nc(-c4ccncc4)nc(NCCN)c23)C1 [compound 112, N*1*-(7-ethyl-2-pyridin-4-yl-5,6,7,8-tetrahydro-pyrido[4′,3′:4,5]thieno[2,3-d]pyrimidin-4-yl)-ethane-1,2-diamine] | 10000 to 40000 nM
28 | N[C@H](CNc1nc(-c2ccncc2)nc2sc3c(c12)CCN(C(=O)c1ccccc1)C3)Cc1ccccc1 [compound 72, [4-((S)-2-Amino-3-phenyl-propylamino)-2-pyridin-4-yl-5,8-dihydro-6H-pyrido[4′,3′:4,5]thieno[2,3-d]pyrimidin-7-yl]-phenyl-methanone] | 1000 to 10000 nM
29 | CC1(C)CCc2c(sc3nc(-c4ccncc4)nc(NCCN)c23)C1 [compound 43, N*1*-(7,7-Dimethyl-2-pyridin-4-yl-5,6,7,8-tetrahydro-benzo[4,5]thieno[2,3-d]pyrimidin-4-yl)-ethane-1,2-diamine] | 1000 to 10000 nM
30 | Cc1sc2c(NC[C@@H](N)Cc3ccccc3)nc(-c3ccncc3)nc2c1Br [compound 300, (S)—N*1*-(7-bromo-6-methyl-2-pyridin-4-yl-thieno[3,2-d]pyrimidin-4-yl)-3-phenyl-propane-1,2-diamine] | < 100 nM
